Experimental data as given in patent US7485710B2, “Nucleic acids coding for adhesion factor of group B streptococcus, adhesion factors of group B streptococcus and further uses thereof” (priority 2002, dated 2009).

How the values were obtained:
A549 cells [1] = test: Epithelial cell adherence and internalization assay of GBS 6313 in presence of proteins; format: cell-based, human; details: for adherence of GBS 6313 to A549 cells in the presence of fusion protein / invasion of A549 cells by GBS 6313 in the presence of fusion protein: 100 μg/ml fusion protein (FIG. 19)
Experimental: The adherence of GBS 6313 to A549 cells (A) and its internalization into these cells (B) was arbitrarily set to 100% and the results obtained in the presence of the different fusion proteins was related to these values. Each experiment was performed at least three times in triplicate.
Adherence of GBS to epithelial cells and internalization into epithelial cells was assayed essentially as described previously (Caparon et al., 1991; Rubens et al. 1992). Briefly, A549 cells were transferred to 24-well tissue culture plates at approximately 4×10^5 cells per well and cultivated overnight in RPMI (Gibco BRL) tissue culture medium, supplemented with 10% of fetal calf serum. After replacement of the medium with 1 ml of fresh medium, the cells were infected with 5×10^6 streptococci per well and incubated at 37° C. for 2 h. The non-adherent bacteria were removed by washing three times with PBS. In adherence assays, the epithelial cells were subsequently detached from the well by the addition of trypsin/EDTA and lysed by adding 300 μl of distilled water. Adherent bacteria were quantitated by plating serial dilutions of the lysate onto THY agar plates. For internalization assays the epithelial cells were incubated after 2 h of infection for another 2 h in tissue culture medium supplemented with penicilling G (10 U) and streptomycin (0.01 mg) to kill extracellular bacteria. After three washes with PBS, the epithelial cells were detached by the addition of trypsin/EDTA and lysed in 300 μl of distilled water. The amount of intracellular bacteria was quantified by plating serial dilutions of the lysate onto THY agar plates. Each experiment was repeated at least three times in triplicate. […]
Adherence of S. agalactiae to A549 and HEL299 cells and internalization into these cells was assayed essentially as described in Example 1 for A549 cells. In some experiments, A549 cells were preincubated with different amounts of FbsA protein or FbsA-derived peptides in RPMI medium for 30 min with three subsequent washes with PBS.

A549 cells [2] = test: Interaction of protein-coated latex beads with A549 cells (scanning electron microscopy); format: cell-based, human
Experimental: BSA-coated latex beads were used as a control.
Latex beads were either coated with BSA (A) or FbsA fusion protein (B-D) and the interaction of the coated beads with the lung epithelial cell line A549 was analyzed by scanning electron microscopy.
Approximately […] latex beads (3 μm diameter, Sigma) were washed tree times in PBS and then coated with 300 μg of fusion protein or BSA in 500 μl PBS overnight at 4° C. Coated beads were washed once in PBS and then blocked with 200 μl of 10 mg/ml BSA in PBS for 1 h at room temperature. Beads were washed twice in PBS and once in RPMI+10% FCS and then resupended in 1 ml of RPMI+10% FCS. 300 μl of beads were added to approximately 4×10^5 A549 cells in 24-well plates. The cells were incubated for 1 h at 37° C. (5% CO2), washed five times with PBS and fixed in a solution containing 3% glutaraldehyde and 5% formaldehyde in cacodylate bluffer for 45 min on ice. The samples were washed with cacodylate buffer, dehydrated in a graded series of acetone and subjected to critical point drying with CO2. Samples were then coated with a 10 nm thick gold film and examined by scanning electron microscopy as described previously (Reinscheid et al., 2001a).
Approximately 1×10^9 latex beads (3 μm diameter, Sigma) were washed three times in 25 mM 2-N-morpholinoethanesulfonic acid (MES), pH 6.8. One half was resuspended in 1.0 ml MES buffer containing 500 μg/ml FbsA fusion protein and the remaining half was resuspended in 1.0 ml MES buffer. The beads were incubated overnight at 4° C. with end-over-end rotation. After pelleting of the beads by centrifugation, the amount of remaining protein in the supernatant was determined with a Bradford protein assay kit (BioRad). The beads were washed once with MES buffer and blocked for 1 h with 10 mg/ml BSA in MES buffer at room temperature. The beads were washed twice with MES buffer, once with RPMI+10% FCS, and resuspended in RPMI+10% FCS. Confluent A549 cells in 24-well plates were inoculated with 2×10^8 beads per well in a total volume of 1.0 ml. The bead monolayer mixtures were incubated for 2 h at 37° C. in a 5% CO2 atmosphere. Cells were washed five times with PBS and fixed with 3% paraformaldehyde and 4% glutaraldehyde in […] cacodylate buffer for scanning electron microscopy. Scanning electron microscopy was performed with a Zeiss DSM 962 microscope.

[3] = Subcutaneous immunization of mice and probing of fusion proteins with mice sera; format: in vivo; details: boost after three weeks, serum after six weeks, 1:1000 dilution
Source text: Serial dilutions of the fusion proteins PabA, PabB, and PabD were spotted onto nitrocellulose and probed with a 1:1000 dilution of the mice sera against the respective proteins. Bound antibodies were labelled with an anti-mouse-HRP conjugate and visualized by chemiluminescence.
To test, if the proteins PabA, PabB and PabD elicit an immune response in mice, purified PabA, PabB and PabD fusion protein was used for the subcutaneous immunization of mice. The mice were boosted after three weeks and serum was collected six weeks after the first immunization. Serial dilutions of the PabA, PabB, and PabD fusion proteins were blotted onto nitrocellulose and probed with the mice sera against the different proteins.

GBS strain 6313 = test: Binding of radiolabelled human proteins to GBS; set-up: species or system Streptococcus agalactiae; details: untreated bacteria
Experimental: Purified human fibrinogen was radiolabelled with ^125I, using the chloramin T method (Hunter and Greenwood, 1962). Binding of labelled fibrinogen to GBS was performed essentially as described by Chhatwal et al. (Chhatwal, Muller, and Blobel, 1983). Briefly, overnight cultures of GBS were pelleted by centrifugation, washed twice with phosphate-buffered saline supplemented with 0.02% Tween 20 (PBST) and adjusted photometrically to a transmission of 10% at 600 nm. A total of 0.2 ml of the bacterial suspension was added to 20 μl of ^125I-labelled fibrinogen containing 23 ng of fibrinogen. After incubation for 1 h at room temperature, the streptococci were sedimented by centrifugation and washed with 1 ml of PBST. The radioactivity of the pellet was finally measured in a gamma counter (Packard Instruments). The amount of bacterial-bound fibrinogen was calculated as the percentage of total radiolabelled fibrinogen added to the bacteria. In inhibition experiments, the binding of 23 ng of radiolabelled fibrinogen to 0.2 ml of GBS (T=10%) was determined in the presence of various amounts of FbsA fusion proteins, Bsp fusion protein or synthetic peptides. Each experiment was repeated at least three times in triplicate.
GBS strain 6313, belonging to serotype III, was tested in binding experiments for its interaction with radiolabelled human vitronectin, laminin, fibronectin, fibrinogen, and IgG. […]

[4] = 1 μg/ml of externally added fibrinogen
[5] = fibrinogen 0.1 μg/ml to 1.0 μg/ml, fibronectin 10 μg/ml, data not shown

Row | Molecule | adherence of GBS 6313 to A549 cells in the presence of fusion protein (A549 cells [1]) | invasion of A549 cells by GBS 6313 in the presence of fusion protein (A549 cells [1]) | binding of protein-coated latex beads to A549 cells (A549 cells [2]) | immune response in mice (detection of fusion protein by mice sera) [3] | reduction of the adherence of GBS 6313 to A549 cells (A549 cells [1]; [4]) [%] | reduction of the invasion of A549 cells by GBS 6313 (A549 cells [1]; [4]) [%] | bacterial adherence to A549 cells after pre-incubation of S. agalactiae 6313 with protein (A549 cells [1]; [5]) | bacterial invasion of A549 cells after pre-incubation of S. agalactiae 6313 with protein (A549 cells [1]; [5]) | radiolabelled protein accumulated on the surface of GBS 6313 (of total) (GBS strain 6313)
1 | PabA | significantly reduced | significantly reduced | significant binding | high immunogenicity | – | – | – | – | –
2 | fibrinogen: purified human fibrinogen (Sigma), 330 kDa plasma glycoprotein [reference compound] | – | – | – | – | 90 | 90 | dose-dependent inhibition | dose-dependent inhibition | about 50%
3 | PabD: C-terminally his-tagged fusion protein of GBS 6313 PabD (gbs0851) devoid of signal peptide (protein, left off: small tags and cut ends, C-terminally his-tagged fusion protein of GBS 6313 PabD (gbs0851) devoid of signal peptide) DDNFEMPTRYVKMSEKSKAFYQRLQEKQRKAHTTVKTFNNSEIRHQLPLKQEKARNDIYNLGILISQESKGFIQRIDNAYSLENVSDIVNEAQALYKRNYDLFEKIKSTRDKVQVLLASHQDNTDLKNFYAELDDMYEHVYLNESRVEAINRNIQKYN | significantly reduced | significantly reduced | significant binding | high immunogenicity | – | – | – | – | –
